The test has as its target T1, PPARγ D174A (Homo sapiens, UniProt P37231, D174A).
T1 construct: host or cells: 293T
The experiment in a line: Gel-based competitive IC50 determination in 293T lysates: D174A PPARγ. It counts as binding. As to conditions: D174A PPARγ expressed in 293T cells, lysate, 1 h, then 10 μM 24c-Cy3. An excerpt: Finally, we sought to understand the molecular basis for PPARγ binding by the synthetic analogues of deoxyelephantopin through identification of the precise covalently modified amino acid site. There is literature precedent for oxidized fatty acids containing an α,β-unsaturated ketone to form a covalent bond with a cysteine in the ligand-binding site of PPARγ[53]. More recently, synthetic ligands binding reversibly to a distinct site were identified. […] Bearing in mind that the structurally simplified, and thus less prone to MS/MS fragmentation, probe 23c binds PPARγ as efficiently as 24c (Supplementary Fig. 13), we treated the recombinant nuclear receptor with the former compound, digested the protein and analysed the resulting peptides by LC–MS/MS. […]
Supplementary figure 21: Top: Fluorescence gels corresponding to the IC50 curves presented in the main text Figure 8b. γ fluorescence signal in percentage after 19a treatment. […]
Biological materials. […] Protein concentration was determined using the Bradford assay (Bio-Rad).
Cell culture and preparation of lysates. […] Cells were lysed by sonication to form cell lysates and protein concentration was determined using the Bradford […]

Results on one compound are retold here after PMC4992173, “Divergent synthesis and identification of the cellular targets of deoxyelephantopins” (Nature Communications, 2016).

Molecules are shown by their SMILES.

T1 sequence (P37231 whole entry D174A): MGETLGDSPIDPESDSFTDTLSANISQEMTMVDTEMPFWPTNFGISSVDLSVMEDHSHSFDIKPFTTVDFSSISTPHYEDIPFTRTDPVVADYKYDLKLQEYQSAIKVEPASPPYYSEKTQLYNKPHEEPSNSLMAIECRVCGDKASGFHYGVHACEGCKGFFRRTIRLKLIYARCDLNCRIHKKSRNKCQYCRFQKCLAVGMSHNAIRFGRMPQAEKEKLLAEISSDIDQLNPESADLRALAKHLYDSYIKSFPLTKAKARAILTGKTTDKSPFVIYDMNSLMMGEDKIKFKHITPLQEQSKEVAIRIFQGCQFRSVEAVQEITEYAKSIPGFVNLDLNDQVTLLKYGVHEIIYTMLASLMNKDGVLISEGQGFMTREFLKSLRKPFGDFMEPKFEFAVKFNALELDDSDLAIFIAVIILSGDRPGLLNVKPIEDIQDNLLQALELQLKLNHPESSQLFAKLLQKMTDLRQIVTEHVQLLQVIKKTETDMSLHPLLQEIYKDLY

Compound `C=C(C)C(=O)O[C@H]1CC2=C[C@H](C/C=C\[C@H]3OC(=O)C(=C)[C@H]13)OC2=O` [19a] displayed an IC50 of 58 µM.
